Measured values: ChEMBL document CHEMBL3885881, “DrugMatrix”

Organism: Rattus norvegicus
Type: toxicity, organism-based, Sprague-Dawley
Details: in vivo, 24 h, time 1 day; for ABSOLUTE BASOPHIL / ABSOLUTE EOSINOPHIL / ABSOLUTE LYMPHOCYTE / ABSOLUTE MONOCYTE / BASOPHIL / EOSINOPHIL / ERYTHROCYTE COUNT / HEMATOCRIT / HEMOGLOBIN / LEUKOCYTE COUNT / LYMPHOCYTE / MEAN CORPUSCULAR HEMOGLOBIN / MEAN CORPUSCULAR HEMOGLOBIN CONCENTRATION / MEAN CORPUSCULAR VOLUME / MONOCYTE / NEUTROPHIL / PLATELET COUNT / ABSOLUTE SEGMENTED NEUTROPHIL / NUCLEATED RED BLOOD CELLS: tissue Blood; for ALANINE AMINOTRANSFERASE / ALBUMIN / ALKALINE PHOSPHATASE / ASPARTATE AMINOTRANSFERASE / BLOOD UREA NITROGEN / CARBON DIOXIDE / CHLORIDE / CHOLESTEROL / CREATINE PHOSPHOKINASE / CREATININE / GLUCOSE / LACTATE DEHYDROGENASE / LIPASE / PHOSPHORUS / POTASSIUM / SODIUM / TOTAL BILIRUBIN / TOTAL PROTEIN / URIC ACID: tissue Plasma
[1] = po, 0 mg/kg, vehicle control, route oral GAVAGE, dose level Control, vehicle 100 % WATER
[2] = po, 120 mg/kg, route oral GAVAGE, dose level High, vehicle 100 % WATER
[3] = sc, 0 mg/kg, route mini-PUMP - SUBCUTANEOUS, dose level Control, vehicle 100 % SALINE
[4] = sc, […], route mini-PUMP - SUBCUTANEOUS, dose 0.77 mg/Kg, dose level High, vehicle 100 % SALINE

Description: DrugMatrix - Regimen: Single

COCCc1ccc(OCC(O)CNC(C)C)cc1 (centres undefined) [METOPROLOL]
ABSOLUTE BASOPHIL [1]: 63.3 cells/µL | ABSOLUTE EOSINOPHIL [1]: 66.7 cells/µL | ABSOLUTE LYMPHOCYTE [1]: 8010 cells/µL | ABSOLUTE MONOCYTE [1]: 240 cells/µL | BASOPHIL [1]: 0.6% | EOSINOPHIL [1]: 0.6% | ERYTHROCYTE COUNT [1]: 6.25 x10E6/uL | HEMATOCRIT [1]: 40.47% | HEMOGLOBIN [1]: 12.83 G/DL | LEUKOCYTE COUNT [1]: 10.19 x10E3/uL | LYMPHOCYTE [1]: 78.7% | MEAN CORPUSCULAR HEMOGLOBIN [1]: 20.53 pg | MEAN CORPUSCULAR HEMOGLOBIN CONCENTRATION [1]: 31.73 G/DL | MEAN CORPUSCULAR VOLUME [1]: 64.67 fL | MONOCYTE [1]: 2.5% | NEUTROPHIL [1]: 17.07% | PLATELET COUNT [1]: 1297 x10E3/uL | ALANINE AMINOTRANSFERASE [1]: 32.67 u/L | ALBUMIN [1]: 3.9 G/DL | ALKALINE PHOSPHATASE [1]: 374 u/L | ASPARTATE AMINOTRANSFERASE [1]: 64.33 u/L | BLOOD UREA NITROGEN [1]: 14 mg/dL | CARBON DIOXIDE [1]: 45.67 mmol/L | CHLORIDE [1]: 103 MEQ/L | CHOLESTEROL [1]: 82.67 mg/dL | CREATINE PHOSPHOKINASE [1]: 216.33 u/L | CREATININE [1]: 0.17 mg/dL | GLUCOSE [1]: 161.33 mg/dL | LACTATE DEHYDROGENASE [1]: 103.67 u/L | LIPASE [1]: 8.67 u/L | PHOSPHORUS [1]: 11 mg/dL | POTASSIUM [1]: 6.83 MEQ/L | SODIUM [1]: 144.67 MEQ/L | TOTAL BILIRUBIN [1]: 0.27 mg/dL | TOTAL PROTEIN [1]: 6.27 G/DL | URIC ACID [1]: 0.67 mg/dL | ABSOLUTE BASOPHIL [2]: 66.7 cells/µL | ABSOLUTE EOSINOPHIL [2]: 90 cells/µL | ABSOLUTE LYMPHOCYTE [2]: 8230 cells/µL | ABSOLUTE MONOCYTE [2]: 290 cells/µL | BASOPHIL [2]: 0.6% | EOSINOPHIL [2]: 0.9% | ERYTHROCYTE COUNT [2]: 6.76 x10E6/uL | HEMATOCRIT [2]: 44.17% | HEMOGLOBIN [2]: 14.1 G/DL | LEUKOCYTE COUNT [2]: 10.39 x10E3/uL | LYMPHOCYTE [2]: 79.03% | MEAN CORPUSCULAR HEMOGLOBIN [2]: 20.87 pg | MEAN CORPUSCULAR HEMOGLOBIN CONCENTRATION [2]: 31.9 G/DL | MEAN CORPUSCULAR VOLUME [2]: 65.33 fL | MONOCYTE [2]: 2.8% | NEUTROPHIL [2]: 16.1% | PLATELET COUNT [2]: 1170 x10E3/uL | ALANINE AMINOTRANSFERASE [2]: 33.33 u/L | ALBUMIN [2]: 3.83 G/DL | ALKALINE PHOSPHATASE [2]: 431 u/L | ASPARTATE AMINOTRANSFERASE [2]: 59 u/L | BLOOD UREA NITROGEN [2]: 13 mg/dL | CARBON DIOXIDE [2]: 38.67 mmol/L | CHLORIDE [2]: 103.33 MEQ/L | CHOLESTEROL [2]: 74 mg/dL | CREATINE PHOSPHOKINASE [2]: 229.33 u/L | CREATININE [2]: 0.3 mg/dL | GLUCOSE [2]: 178 mg/dL | LACTATE DEHYDROGENASE [2]: 77.67 u/L | LIPASE [2]: 8 u/L | PHOSPHORUS [2]: 12.3 mg/dL | POTASSIUM [2]: 6.47 MEQ/L | SODIUM [2]: 144 MEQ/L | TOTAL BILIRUBIN [2]: 0.23 mg/dL | TOTAL PROTEIN [2]: 6.2 G/DL | URIC ACID [2]: 0.9 mg/dL

CNCC(O)c1ccc(O)c(O)c1 (centres undefined) [RACEPINEPHRINE]
ABSOLUTE EOSINOPHIL [3]: 26.17 CELLS/uL | ABSOLUTE LYMPHOCYTE [3]: 10985.83 CELLS/uL | ABSOLUTE MONOCYTE [3]: 234.5 CELLS/uL | ABSOLUTE SEGMENTED NEUTROPHIL [3]: 1753.5 CELLS/uL | BASOPHIL [3]: 0% | EOSINOPHIL [3]: 0.17% | ERYTHROCYTE COUNT [3]: 5.64 x10E6/uL | HEMOGLOBIN [3]: 12.68 G/DL | LEUKOCYTE COUNT [3]: 13 x10E3/uL | LYMPHOCYTE [3]: 84.5% | MEAN CORPUSCULAR HEMOGLOBIN [3]: 22.5 pg | MEAN CORPUSCULAR HEMOGLOBIN CONCENTRATION [3]: 36.78 G/DL | MEAN CORPUSCULAR VOLUME [3]: 61.18 fL | NEUTROPHIL [3]: 13.5% | NUCLEATED RED BLOOD CELLS [3]: 0.17 /100WBC | PLATELET COUNT [3]: 679.17 x10E3/uL | ALANINE AMINOTRANSFERASE [3]: 42.67 u/L | ALBUMIN [3]: 3.77 G/DL | ALKALINE PHOSPHATASE [3]: 291.17 u/L | ASPARTATE AMINOTRANSFERASE [3]: 74.5 u/L | BLOOD UREA NITROGEN [3]: 15.33 mg/dL | CARBON DIOXIDE [3]: 30 mmol/L | CHLORIDE [3]: 100.83 MEQ/L | CHOLESTEROL [3]: 65.33 mg/dL | CREATININE [3]: 0.15 mg/dL | LACTATE DEHYDROGENASE [3]: 162.67 u/L | LIPASE [3]: 8.5 u/L | PHOSPHORUS [3]: 12.2 mg/dL | POTASSIUM [3]: 5.73 MEQ/L | SODIUM [3]: 144.7 MEQ/L | TOTAL BILIRUBIN [3]: 0.15 mg/dL | TOTAL PROTEIN [3]: 5.87 G/DL | URIC ACID [3]: 1.93 mg/dL | ABSOLUTE EOSINOPHIL [4]: 58.33 CELLS/uL | ABSOLUTE LYMPHOCYTE [4]: 10774 CELLS/uL | ABSOLUTE MONOCYTE [4]: 283.33 CELLS/uL | ABSOLUTE SEGMENTED NEUTROPHIL [4]: 3051 CELLS/uL | BASOPHIL [4]: 0% | ERYTHROCYTE COUNT [4]: 5.86 x10E6/uL | HEMOGLOBIN [4]: 12.93 G/DL | LEUKOCYTE COUNT [4]: 14.17 x10E3/uL | LYMPHOCYTE [4]: 76.33% | MEAN CORPUSCULAR HEMOGLOBIN [4]: 22.1 pg | MEAN CORPUSCULAR HEMOGLOBIN CONCENTRATION [4]: 36.47 G/DL | MEAN CORPUSCULAR VOLUME [4]: 60.53 fL | NEUTROPHIL [4]: 21.33% | NUCLEATED RED BLOOD CELLS [4]: 0.67 /100WBC | PLATELET COUNT [4]: 983 x10E3/uL | ALBUMIN [4]: 4.03 G/DL | ALKALINE PHOSPHATASE [4]: 374 u/L | BLOOD UREA NITROGEN [4]: 11.67 mg/dL | CHLORIDE [4]: 100.33 MEQ/L | CHOLESTEROL [4]: 88.67 mg/dL | CREATININE [4]: 0.15 mg/dL | GLUCOSE [4]: 283.33 mg/dL | LACTATE DEHYDROGENASE [4]: 103.67 u/L | LIPASE [4]: 9 u/L | PHOSPHORUS [4]: 15.53 mg/dL | POTASSIUM [4]: 5.99 MEQ/L | SODIUM [4]: 145.87 MEQ/L | TOTAL BILIRUBIN [4]: 0.13 mg/dL | URIC ACID [4]: 3.3 mg/dL
